Publication PMC9021288 (Nature Communications, 2022)
Several values for one entry are separate records, joined by “and”; a condition that tells them apart may be missing. Identical values can stand only once. Like-named read-outs stand apart in the source and are kept apart here.

Assays:
[1] = Blood to plasma ratio, mouse
[2] = molecular target: T1, panel of human receptors and channels (Homo sapiens, UniProt P24530); format: binding; conditions: ETB (h) (agonist radioligand); Rep1, Rep2, Mean
T1 construct: purchased Eurofins CEREP

[3] = molecular target: T2, panel of human receptors and channels (Homo sapiens, UniProt Q9GZV3); format: binding; conditions: choline transporter (CHT1) (h) (antagonist radioligand); Rep1, Rep2, Mean
T2 construct: purchased Eurofins CEREP

[4] = molecular target: T3, panel of human receptors and channels (Homo sapiens, UniProt P30518); format: binding; conditions: V2 (h) (agonist radioligand); Rep1, Rep2, Mean
T3 construct: purchased Eurofins CEREP

[5] = molecular target: T4, panel of human receptors and channels (Homo sapiens, UniProt P50052); format: binding; conditions: AT2 (h) (agonist radioligand); Rep1, Rep2, Mean
T4 construct: purchased Eurofins CEREP

[6] = molecular target: T5, panel of human receptors and channels (Homo sapiens, UniProt P25101); format: binding; conditions: ETA (h) (agonist radioligand); Rep1, Rep2, Mean
T5 construct: purchased Eurofins CEREP
T5 sequence (P25101 21-427): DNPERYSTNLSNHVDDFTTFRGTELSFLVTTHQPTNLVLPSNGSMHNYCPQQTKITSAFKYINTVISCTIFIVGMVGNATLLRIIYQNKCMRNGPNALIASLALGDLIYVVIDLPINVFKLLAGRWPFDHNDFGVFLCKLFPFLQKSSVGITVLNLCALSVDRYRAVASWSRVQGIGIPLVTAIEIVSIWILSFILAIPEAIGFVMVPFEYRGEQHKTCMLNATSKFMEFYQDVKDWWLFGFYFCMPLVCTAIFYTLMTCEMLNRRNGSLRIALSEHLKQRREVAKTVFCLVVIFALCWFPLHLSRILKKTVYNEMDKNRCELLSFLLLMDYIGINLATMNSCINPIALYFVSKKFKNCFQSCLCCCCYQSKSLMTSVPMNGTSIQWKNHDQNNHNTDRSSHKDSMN

[7] = molecular target: T6, panel of human receptors and channels (Homo sapiens, UniProt P29371); format: binding; conditions: NK3 (h) (antagonist radioligand); Rep1, Rep2, Mean
T6 construct: purchased Eurofins CEREP
T6 sequence (P29371 whole entry): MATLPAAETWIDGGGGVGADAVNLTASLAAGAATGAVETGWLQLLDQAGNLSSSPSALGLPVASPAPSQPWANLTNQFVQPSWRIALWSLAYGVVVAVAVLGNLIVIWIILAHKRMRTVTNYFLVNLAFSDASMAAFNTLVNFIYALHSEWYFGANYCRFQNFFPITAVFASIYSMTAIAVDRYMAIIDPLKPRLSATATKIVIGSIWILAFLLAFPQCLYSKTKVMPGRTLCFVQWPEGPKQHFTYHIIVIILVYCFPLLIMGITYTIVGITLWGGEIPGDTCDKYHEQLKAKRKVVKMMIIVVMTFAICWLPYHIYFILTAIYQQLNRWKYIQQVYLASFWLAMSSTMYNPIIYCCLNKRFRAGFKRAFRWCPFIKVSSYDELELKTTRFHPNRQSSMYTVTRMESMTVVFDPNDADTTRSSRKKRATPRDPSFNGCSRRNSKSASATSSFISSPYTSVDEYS

[8] = molecular target: T7, panel of human receptors and channels (Homo sapiens, UniProt P08588); format: binding; conditions: β1 (h) (agonist radioligand); Rep1, Rep2, Mean
T7 construct: purchased Eurofins CEREP

[9] = molecular target: T8, panel of human receptors and channels (Homo sapiens, UniProt P30411); format: binding; conditions: B2 (h) (agonist radioligand); Rep1, Rep2, Mean
T8 construct: purchased Eurofins CEREP
T8 sequence (P30411 whole entry): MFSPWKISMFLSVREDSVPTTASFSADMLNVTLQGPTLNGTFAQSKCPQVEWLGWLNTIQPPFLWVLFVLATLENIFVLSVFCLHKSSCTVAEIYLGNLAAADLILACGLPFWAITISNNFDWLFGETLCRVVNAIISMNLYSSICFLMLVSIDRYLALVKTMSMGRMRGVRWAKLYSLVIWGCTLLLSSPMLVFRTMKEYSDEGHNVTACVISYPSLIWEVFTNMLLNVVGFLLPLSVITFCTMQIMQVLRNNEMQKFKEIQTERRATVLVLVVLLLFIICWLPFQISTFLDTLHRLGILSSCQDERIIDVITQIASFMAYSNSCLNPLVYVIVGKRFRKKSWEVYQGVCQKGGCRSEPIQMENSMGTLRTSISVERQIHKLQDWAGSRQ

[10] = molecular target: T9, panel of human receptors and channels (Homo sapiens, UniProt P34998); format: binding; conditions: CRF1 (h) (agonist radioligand); Rep1, Rep2, Mean
T9 construct: purchased Eurofins CEREP

[11] = molecular target: T10, panel of human receptors and channels (Homo sapiens, UniProt P25021); format: binding; conditions: H2 (h) (antagonist radioligand); Rep1, Rep2, Mean
T10 construct: purchased Eurofins CEREP

[12] = molecular target: T11, panel of human receptors and channels (Homo sapiens, UniProt P37231); format: binding; conditions: PPARγ (h) (agonist radioligand); Rep1, Rep2, Mean
T11 construct: purchased Eurofins CEREP
T11 sequence (P37231 whole entry): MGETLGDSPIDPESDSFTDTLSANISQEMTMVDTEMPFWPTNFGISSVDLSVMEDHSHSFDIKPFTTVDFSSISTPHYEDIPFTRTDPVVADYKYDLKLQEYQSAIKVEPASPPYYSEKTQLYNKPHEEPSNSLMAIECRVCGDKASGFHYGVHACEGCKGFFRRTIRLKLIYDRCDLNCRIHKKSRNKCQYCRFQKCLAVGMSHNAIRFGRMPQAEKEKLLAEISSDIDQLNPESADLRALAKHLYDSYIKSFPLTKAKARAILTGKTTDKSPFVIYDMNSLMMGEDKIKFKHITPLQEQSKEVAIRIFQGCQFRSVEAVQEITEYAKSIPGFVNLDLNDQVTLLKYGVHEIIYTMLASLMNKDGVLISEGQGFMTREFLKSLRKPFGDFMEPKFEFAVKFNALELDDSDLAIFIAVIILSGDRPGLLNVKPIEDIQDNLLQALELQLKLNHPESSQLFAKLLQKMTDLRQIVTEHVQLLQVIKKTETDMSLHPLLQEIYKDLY

[13] = molecular target: T12, panel of human receptors and channels (Homo sapiens, UniProt Q9Y5N1); format: binding; conditions: H3 (h) (agonist radioligand); Rep1, Rep2, Mean
T12 construct: purchased Eurofins CEREP

[14] = molecular target: T13, panel of human receptors and channels (Homo sapiens, UniProt P21554); format: binding; conditions: CB1 (h) (agonist radioligand); Rep1, Rep2, Mean
T13 construct: purchased Eurofins CEREP

[15] = molecular target: T14, panel of human receptors and channels (Homo sapiens, UniProt P34981); format: binding; conditions: TRH1 (h) (agonist radioligand); Rep1, Rep2, Mean
T14 construct: purchased Eurofins CEREP
T14 sequence (P34981 whole entry): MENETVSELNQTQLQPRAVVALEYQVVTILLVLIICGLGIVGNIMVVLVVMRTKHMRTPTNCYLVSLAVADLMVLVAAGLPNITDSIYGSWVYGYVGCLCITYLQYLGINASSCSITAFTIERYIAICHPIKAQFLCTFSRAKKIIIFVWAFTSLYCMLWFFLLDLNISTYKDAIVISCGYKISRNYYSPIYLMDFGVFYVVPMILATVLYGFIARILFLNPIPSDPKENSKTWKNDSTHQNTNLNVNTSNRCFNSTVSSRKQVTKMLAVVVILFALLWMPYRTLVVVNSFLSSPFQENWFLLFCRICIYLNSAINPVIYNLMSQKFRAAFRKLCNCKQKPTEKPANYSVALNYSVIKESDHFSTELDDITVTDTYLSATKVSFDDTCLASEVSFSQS

[16] = molecular target: T15, panel of human receptors and channels (Homo sapiens, UniProt Q01959); format: binding; conditions: dopamine transporter (h) (antagonist radioligand); Rep1, Rep2, Mean
T15 construct: purchased Eurofins CEREP
T15 sequence (Q01959 whole entry): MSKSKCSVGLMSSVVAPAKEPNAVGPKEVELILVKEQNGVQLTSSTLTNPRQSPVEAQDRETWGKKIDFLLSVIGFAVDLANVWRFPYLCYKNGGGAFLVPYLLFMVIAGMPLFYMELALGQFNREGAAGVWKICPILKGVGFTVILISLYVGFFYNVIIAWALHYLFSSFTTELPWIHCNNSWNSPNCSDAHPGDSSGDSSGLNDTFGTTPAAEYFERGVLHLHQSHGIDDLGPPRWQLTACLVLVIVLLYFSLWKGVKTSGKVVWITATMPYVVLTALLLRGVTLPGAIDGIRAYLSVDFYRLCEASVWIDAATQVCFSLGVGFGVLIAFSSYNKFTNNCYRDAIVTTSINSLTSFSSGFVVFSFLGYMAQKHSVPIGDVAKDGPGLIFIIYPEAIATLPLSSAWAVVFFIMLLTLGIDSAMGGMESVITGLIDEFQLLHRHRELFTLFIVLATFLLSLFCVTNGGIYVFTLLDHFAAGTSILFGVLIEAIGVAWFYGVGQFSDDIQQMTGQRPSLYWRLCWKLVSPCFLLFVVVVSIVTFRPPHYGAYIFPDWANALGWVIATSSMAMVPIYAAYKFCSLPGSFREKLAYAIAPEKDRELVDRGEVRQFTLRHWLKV

[17] = molecular target: T16, panel of human receptors and channels (Homo sapiens, UniProt P23975); format: binding; conditions: norepinephrine transporter (h) (antagonist radioligand); Rep1, Rep2, Mean
T16 construct: purchased Eurofins CEREP
T16 sequence (P23975 whole entry): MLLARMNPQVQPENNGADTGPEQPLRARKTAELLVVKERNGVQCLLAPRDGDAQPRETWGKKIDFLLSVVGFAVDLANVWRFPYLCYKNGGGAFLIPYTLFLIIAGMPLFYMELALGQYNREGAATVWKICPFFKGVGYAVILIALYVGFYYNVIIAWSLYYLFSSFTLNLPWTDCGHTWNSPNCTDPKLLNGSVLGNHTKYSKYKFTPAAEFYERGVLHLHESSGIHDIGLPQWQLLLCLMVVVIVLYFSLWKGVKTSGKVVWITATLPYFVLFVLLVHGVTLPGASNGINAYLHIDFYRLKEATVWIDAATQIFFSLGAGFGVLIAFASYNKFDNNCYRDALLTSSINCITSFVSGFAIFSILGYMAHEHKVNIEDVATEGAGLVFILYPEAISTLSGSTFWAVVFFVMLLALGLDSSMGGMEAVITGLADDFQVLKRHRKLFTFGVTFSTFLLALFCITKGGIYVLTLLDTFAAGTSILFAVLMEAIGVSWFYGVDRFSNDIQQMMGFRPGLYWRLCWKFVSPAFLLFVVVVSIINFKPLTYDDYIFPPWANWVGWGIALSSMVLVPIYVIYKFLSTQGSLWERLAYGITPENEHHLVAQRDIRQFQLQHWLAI

[18] = molecular target: T17, panel of human receptors and channels (Homo sapiens, UniProt P35367); format: binding; conditions: H1 (h) (antagonist radioligand); Rep1, Rep2, Mean
T17 construct: purchased Eurofins CEREP

[19] = molecular target: T18, panel of human receptors and channels (Homo sapiens, UniProt P31645); format: binding; conditions: 5-HT transporter (h) (antagonist radioligand); Rep1, Rep2, Mean
T18 construct: purchased Eurofins CEREP
T18 sequence (P31645 whole entry): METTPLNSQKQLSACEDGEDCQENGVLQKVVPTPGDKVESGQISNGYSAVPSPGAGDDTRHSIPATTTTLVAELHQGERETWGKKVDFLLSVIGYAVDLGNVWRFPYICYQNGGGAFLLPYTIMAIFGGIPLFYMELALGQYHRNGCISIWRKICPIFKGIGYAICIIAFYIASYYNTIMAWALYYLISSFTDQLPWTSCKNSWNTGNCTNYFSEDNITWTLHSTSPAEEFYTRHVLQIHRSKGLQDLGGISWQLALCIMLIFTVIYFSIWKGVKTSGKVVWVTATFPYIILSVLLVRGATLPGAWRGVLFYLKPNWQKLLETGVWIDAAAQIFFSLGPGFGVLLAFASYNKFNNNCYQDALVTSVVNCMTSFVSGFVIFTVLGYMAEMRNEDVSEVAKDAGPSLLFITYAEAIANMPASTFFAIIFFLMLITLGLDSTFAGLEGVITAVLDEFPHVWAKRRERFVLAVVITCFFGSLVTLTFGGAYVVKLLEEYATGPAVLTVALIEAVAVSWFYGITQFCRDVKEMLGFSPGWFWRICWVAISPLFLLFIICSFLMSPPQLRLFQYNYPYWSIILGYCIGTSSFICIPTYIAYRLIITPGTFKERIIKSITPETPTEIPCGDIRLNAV

[20] = molecular target: T19, panel of human receptors and channels (Homo sapiens, UniProt P30542); format: binding; conditions: A1 (h) (antagonist radioligand); Rep1, Rep2, Mean
T19 construct: purchased Eurofins CEREP

[21] = molecular target: T20, panel of human receptors and channels (Homo sapiens, UniProt P0DMS8); format: binding; conditions: A3 (h) (agonist radioligand); Rep1, Rep2, Mean
T20 construct: purchased Eurofins CEREP
T20 sequence (P0DMS8 whole entry): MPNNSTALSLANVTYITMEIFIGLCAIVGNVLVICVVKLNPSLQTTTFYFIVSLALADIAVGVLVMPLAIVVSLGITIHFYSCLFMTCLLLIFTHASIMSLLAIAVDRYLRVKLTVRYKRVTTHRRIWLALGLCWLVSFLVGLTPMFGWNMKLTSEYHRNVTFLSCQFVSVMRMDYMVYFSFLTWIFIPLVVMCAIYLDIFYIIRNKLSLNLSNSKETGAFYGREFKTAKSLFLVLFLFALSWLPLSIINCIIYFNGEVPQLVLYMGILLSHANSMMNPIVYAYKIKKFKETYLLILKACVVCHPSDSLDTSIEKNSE

[22] = molecular target: T21, panel of human receptors and channels (Homo sapiens, UniProt P43681); format: binding; conditions: N neuronal α4β2 (h) (agonist radioligand); Rep1, Rep2, Mean
T21 construct: purchased Eurofins CEREP
T21 sequence (P43681 27-627): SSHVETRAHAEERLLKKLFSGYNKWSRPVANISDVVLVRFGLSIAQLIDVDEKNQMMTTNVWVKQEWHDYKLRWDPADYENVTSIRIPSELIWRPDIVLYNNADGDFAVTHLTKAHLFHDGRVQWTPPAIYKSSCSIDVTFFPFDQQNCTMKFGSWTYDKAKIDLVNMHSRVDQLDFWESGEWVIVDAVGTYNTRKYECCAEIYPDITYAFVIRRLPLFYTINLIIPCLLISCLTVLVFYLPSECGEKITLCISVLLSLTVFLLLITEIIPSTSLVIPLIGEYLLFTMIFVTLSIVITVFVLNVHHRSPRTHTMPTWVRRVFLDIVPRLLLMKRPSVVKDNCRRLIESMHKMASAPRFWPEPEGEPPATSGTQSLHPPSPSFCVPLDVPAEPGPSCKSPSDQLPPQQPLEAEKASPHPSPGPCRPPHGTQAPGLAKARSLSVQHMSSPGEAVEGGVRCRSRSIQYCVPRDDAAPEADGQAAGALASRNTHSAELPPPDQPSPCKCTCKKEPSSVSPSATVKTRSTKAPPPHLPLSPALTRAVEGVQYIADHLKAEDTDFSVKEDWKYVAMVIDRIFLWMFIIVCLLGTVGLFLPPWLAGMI

[23] = Population PK model in NSG mice; format: in vivo, female NSG mice; conditions: population PK model estimate
Protocol: The experimental designs are summarized in Supplementary Table 30. […] Samples were processed under liquid-liquid extraction methods and analyzed by LC-MS/MS for quantitation in a Waters UPLC-TQD (Micromass, Manchester, UK).
Data preparation, exploration and model pre- and postprocessing were performed using R (version 3.6.3) and R package IQRtools (version 1.2.1 IntiQuan GmbH). Non-linear mixed-effects (NLME) modeling was used to estimate the PK and PD parameters using Monolix (Lixoft version MLX2018R2). The population PKPD model was developed with a two-stage approach: first, a population PK model was determined; then, the individual PK parameters were used as regression parameters and the PD parameters were estimated. The PD model consists of the balance between a parasite net growth rate and a drug killing rate. […] The growth rate of log-transformed parasite concentration was fixed at 0.03 /h based on prior experiments but estimating growth rate interindividual variability. Different Hill coefficients were tested.

[24] = Solubility in PBS, FaSSIF, FeSSIF; format: physicochemical
[25] = system: artemisinin-resistant P. falciparum Cambodian field isolates; assay: Drug susceptibility of culture-adapted Cambodian isolates; format: cell-based, Plasmodium falciparum
Protocol: Endpoint readout to determine parasites density was performed with a High-Content Confocal Imaging microscope (Lionheart™ FX Automated Microscope, Biotek), IC50 values were obtained using ICestimator software (http://www.antimalarial-icestimator.net/runregression1.2.htm).

Structure (SMILES): C[C@@H](CNC(=O)[C@H](O)C(C)(C)CO)NC(=O)c1cc(F)c(F)cc1F [MMV693183]
- B:P [1]: 0.98
- % Inhibition of Control Specific Binding [2]: -8.6%
- % Inhibition of Control Specific Binding [3]: 2.6% and 4.5% and 3.55%
- % Inhibition of Control Specific Binding [4]: 3.4% and 12.9% and 8.15%
- % Inhibition of Control Specific Binding [5]: 7.4%
- % Inhibition of Control Specific Binding [6]: -8.1% and -6.5% and -7.3%
- % Inhibition of Control Specific Binding [7]: -0.9% and 5.3% and 2.2%
- % Inhibition of Control Specific Binding [8]: 13.7% and 4.9% and 9.3%
- % Inhibition of Control Specific Binding [9]: 0.2% and 8.4% and 4.3%
- % Inhibition of Control Specific Binding [10]: 16.8% and 10.5% and 13.65%
- % Inhibition of Control Specific Binding [11]: -9.2% and -5.1% and -7.15%
- % Inhibition of Control Specific Binding [12]: -8.7% and -7.1% and -7.9%
- % Inhibition of Control Specific Binding [13]: -9.8% and -18.8% and -14.3%
- % Inhibition of Control Specific Binding [14]: -14.2%
- % Inhibition of Control Specific Binding [15]: -6.1% and -7.7% and -6.9%
- % Inhibition of Control Specific Binding [16]: -10.1% and -0.3% and -5.2%
- % Inhibition of Control Specific Binding [17]: -1.3% and -5.4% and -3.35%
- % Inhibition of Control Specific Binding [18]: 6.2% and 8% and 7.1%
- % Inhibition of Control Specific Binding [19]: -13.7% and -4.2% and -8.95%
- % Inhibition of Control Specific Binding [20]: -9.6% and -3.5% and -6.55%
- % Inhibition of Control Specific Binding [21]: -6.2% and -3.3% and -4.75%
- % Inhibition of Control Specific Binding [22]: -14.6% and -4.9% and -9.75%
- CL, apparent clearance [23]: 1.25 L/h
- Tk0, absorption time [23]: 0.364 h
- Vc, apparent central volume [23]: 2.25 L
- Vp1, apparent peripheral volume [23]: 799 L
- Vp2, apparent second peripheral volume [23]: 1.81 L
- solubility ([24]; FaSSIF): 25.5 µM
- solubility ([24]; FeSSIF): 25.0 µM
- solubility ([24]; PBS): 7100 µg/mL
- solubility ([24]; fasted-state simulated intestinal fluid): 9200 µg/mL
- solubility ([24]; fed-state simulated intestinal fluid): 9100 µg/mL
- sensitivity of isolates [25]: sensitive to MMV693183
- IC50 ([25]; ART isolates, read-out: IC50s): 1.36 nM and 1.4 nM and 1.6 nM and 1.2 nM and 1.3 nM
- IC50 ([25]; ART-PPQ-AQ isolates, read-out: IC50s): 0.84 nM and 1.26 nM and 1.36 nM and 1.54 nM and 1.3 nM and 1.03 nM and 1.1 nM and 1.39 nM
- IC50 ([25]; Cambodian ACT-resistant isolates, read-out: IC50): 0.21 to 1.84 nM
- IC50 ([25]; MQ-ART isolates, read-out: IC50s): 1.48 nM
- IC50 ([25]; WT isolates, read-out: IC50s): 1.57 nM and 1.28 nM and 1.01 nM and 1.31 nM and 1.26 nM and 1.38 nM and 1.32 nM and 1.61 nM
